Measured values reported in US20240150387A1, “GLUCOCEREBROSIDE COMPOUND, PHARMACEUTICAL COMPOSITION THEREOF AND USE THEREOF” (DONGGUAN HEC CORDYCEPS R&D CO., LTD., priority 2021, published 2024).

Experiments:
[1] = test system: spleen lymphocytes; assay: Detection of cell viability (CCK-8) of spleen lymphocytes; format: cell-based, mouse; conditions: 64, 32, 16, 8, 4, and 2 μM; 60 h incubation; compared with the control group
Description: (§1) 3.2.1 Cell acquisition: BABL/C male mice ere sacrificed after eyeball extraction and bloodletting, soaked in 75% ethanol for 10 mint, and the spleen was aseptically removed in an ultra-clean workbench, and placed in a petri dish filled with PBS. A syringe was used to absorb PBS to rinse the surface and interior of the spleen until the spleen turned white, then the spleen was gently torn up with tweezers. The spleen was gently crushed with a 5 mL syringe on the steel mesh to make a single-cell suspension, which was filtered through a 200-mesh sieve. The filtrate was centrifuged for 10 min (1000 rpm/min); after centrifugation, the supertnatant was discarded. After the cell pellet was resuspended with PBS, the mixture was centrifuged again for 10 min (1000 rpm/min), and the operation was repeated once; 2 mL of erythrocyte lysate was added to the cell pellet. After the mixture was mixed evenly and allowed to stand for 5 min, 8 mL of PBS was added to nx evenly, and then the mixture was centrifuged at 1000 rpm min for 5 min. After centrifugation, the supernatant was discarded, the cell pellet was resuspended with PBS, then the mixture was centrifuged again for 10 min (1000 rpm/min), and the operation was repeated once; after centrifugation, the supematant ias discarded, the cell pellet was suspended in 1 mL of RPMI-1640 complete medium (containing 10% fetal bovine serum and 1% double antibody). 2-3 mL medium was added to dilute. A cell counter was used for cell counting (new cell type), and complete medium was used to adjust the cell concentration to 2*10^6 cells/mL.
(§2) 3.2.2 Stunple preparation: appropriate amount of compounds 1, 2, 3, and 4 were dissolved in DMSO respectively to prepare 64 mM mother solution, and then diluted with medium to obtain solutions with a concentration of 128 μM respectively, and then gradiently diluted with medium to obtain sample dilutions with concentrations of 64 μM, 32 μM, 16 μM, 8 μM, and 4 μM, respectively.
3.2.3 Detection of cell viability: the prepared cell suspension was added to a 96-well plate. The seeding cell density was 2*10^5 cells/well, and the added cell volume was 100 μL. Compounds 1, 2, 3, and 4 were added at 100 μL/well, with 5 replicate wells for each concentration, and then incubated in a 37° C. 5% CO2 incubator for 60 h, and then incubated in a 37° C. incubator for 4-5 hours with serum-free medium and 10% CCK-8. The absorbance (A) value of each well was detected at 450 nm by a inicroplate reader. […]
3.2.5 Data processing: the proliferation rate (viability) of the sample to spleen hymphocytes was calculated according to the following formula:
Proliferation rate %=[As/Ac]×100% • As: Absorbance of sample group (spleen lymphocytes+samples to be tested+CCK-8) • Ac: Absorbance of control group (spleen lymphocytes+CCK-8)

[2] = test system: spleen lymphocytes induced by Con A; assay: Detection of cell proliferation inhibition: Con A-induced spleen lymphocyte proliferation (CCK-8); format: cell-based; conditions: Mus musculus; for inhibition at 2 µM: concentration 2 μM; for inhibition at 2 µM / inhibition at 4 µM / inhibition at 8 µM / inhibition at 16 µM / inhibition at 32 µM / inhibition at 64 µM: read-out: Inhibitory rate (%) on the proliferation of spleen lymphocytes induced by Con A; for inhibition at 4 µM: concentration 4 μM; for inhibition at 8 µM: concentration 8 μM; for inhibition at 16 µM: concentration 16 μM; for inhibition at 32 µM: concentration 32 μM; for inhibition at 64 µM: concentration 64 μM; for IC50: linear fit of inhibition rate against log concentration, ConA final 7.5 μg/mL, 48 h
Description: as §1, §2
3.2.4 Detection of cell proliferation inhibition: the prepared cell suspension was added to the 96-well plate. The seeding cell density was 2*10^5 cells/well, and the added cell volume was 100 μL. Samples were added at 100 μL, with 5 replicate wells for each concentration, and then incubated in a 37° C., 5% CO2 incubator for 12 h. 10 μL of the supernatant were carefully suck out. 10 μL ConA with a concentration of 150 μg/mL (final concentration: 7.5 μg/mL) was added to the corresponding group, and then the mixture was incubated in a 37° C., 5% CO2 incubator for 48 h, and finally incubated in a 37° C. incubator for 4-5 hours with serum-free medium and 10% CCK-8. The absorbance (A) value of each well was detected at 450 nm by a microplate reader. A negative control group and a model control group were set up, which were cells+1640 medium, cells+ConA+1640 medium, respectively.
The proliferation inhibition rate of the sample to spleen lymphocytes was calculated according to the following formula:
Proliferation inhibition rate %=[(Am−As)/(Am−Ac)]×100% • Am: Absorbance of model control group (spleen lymphocytes+ConA+CCK-8) • As: Absorbance of sample group (spleen lymphocytes+samples to be tested+ConA+CCK-8) • Ac: Absorbance of negative control group (spleen lymphocytes+CCK-8)
The experimental results of compounds 1. 2, 3.

What does the source list for `CCCCCCCCCCCCC/C=C/[C@@H](O)C(=O)N[C@@H](CO[C@@H]1O[C@H](CO)[C@@H](O)[C@H](O)[C@H]1O)[C@H](O)/C=C/CC/C=C(\C)CCCCCCCCC` [Compound 1]?
cytotoxic effect on spleen lymphocytes [1]: no cytotoxic effect; inhibition at 2 µM [2]: 130%; inhibition at 4 µM [2]: 136%; inhibition at 8 µM [2]: 146%; inhibition at 16 µM [2]: 150%; inhibition at 32 µM [2]: 148%; inhibition at 64 µM [2]: 152%; IC50 [2]: 4 µM

Which results are given for `CCCCCCCCCCC/C=C/[C@@H](O)C(=O)N[C@@H](CO[C@@H]1O[C@H](CO)[C@@H](O)[C@H](O)[C@H]1O)[C@H](O)/C=C/CC/C=C(\C)CCCCCCCCC` [Compound 2]?
cytotoxic effect on spleen lymphocytes [1]: no cytotoxic effect; inhibition at 2 µM [2]: 43.7%; inhibition at 4 µM [2]: 54.3%; inhibition at 8 µM [2]: 77.7%; inhibition at 16 µM [2]: 100%; inhibition at 32 µM [2]: 126%; inhibition at 64 µM [2]: 140%; IC50 [2]: 10.4 µM

With `CCCCCCCCC/C=C/CC/C=C/[C@@H](O)[C@H](CO[C@@H]1O[C@H](CO)[C@@H](O)[C@H](O)[C@H]1O)NC(=O)[C@H](O)/C=C/CCCCCCCCCCCC` [Compound 3] as the compound, how does the “cytotoxic effect on spleen lymphocytes” value [1] read?
Its value is “no cytotoxic effect”.

What about the inhibition at 2 µM [2] of the same compound?
Its inhibition at 2 µM is 4.5%.

What about the inhibition at 4 µM [2] of the same compound?
The inhibition at 4 µM was 30.9%.

What about the inhibition at 8 µM [2] of the same compound?
Its inhibition at 8 µM is 37.4%.

And the inhibition at 16 µM [2]?
Its inhibition at 16 µM is 52%.

And the inhibition at 32 µM [2]?
The inhibition at 32 µM was 84.2%.

What about the inhibition at 64 µM [2] of the same compound?
Its inhibition at 64 µM is 123%.

What about the IC50 [2] of the same compound?
Its IC50 is 19.5 µM.

Which results are given for `CCCCCCCCCCCCCCCC(=O)N[C@@H](CO[C@@H]1O[C@H](CO)[C@@H](O)[C@H](O)[C@H]1O)[C@H](O)/C=C/CC/C=C(\C)CCCCCCCCC` [Compound 4]?
cytotoxic effect on spleen lymphocytes [1]: no cytotoxic effect; inhibition at 2 µM [2]: 72.2%; inhibition at 4 µM [2]: 70.7%; inhibition at 8 µM [2]: 100%; inhibition at 16 µM [2]: 102%; inhibition at 32 µM [2]: 120%; inhibition at 64 µM [2]: 120%; IC50 [2]: 1.5 µM
